According to patent publication US20100216693A1, “COMPOSITIONS AND METHODS OF TREATING DIABETES” (priority 2005, published 2010):

Legend:
[1] = target: T1, insulin-insulin interaction (Homo sapiens, UniProt P01308); assay: SPR: effect of substances mixed with insulin in solution on insulin-insulin interaction; type: binding; details: for effect of additive on insulin-insulin interaction: pH 5, insulin 10 μM, zinc sulfate in molar ratios higher than insulin, EDTA up to 10 μM
T1 construct: 28; purchased Novo Nordisk A/S, Denmark Actrapid
T1 sequence (P01308 25-54 limits assumed): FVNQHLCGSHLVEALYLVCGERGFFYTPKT
T1 sequence (P01308 90-110 limits assumed): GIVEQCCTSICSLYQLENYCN
Description: BiacorA Biacore 3000 instrument was employed for the interaction measurements based on surface plasmon resonance (SPR). Interaction analyses were performed at 25° C. in 10 mM Na-citrate buffers pH 3, 4, 5, 10 mM bis-Tris, pH 6, and 10 mM Tris/HC1, pH 7, all buffers containing 100 mM NaCl and 0.005% 5P20. Flow rates for the binding analyses were kept at 20 μl/min. […] Insulin was immobilized on a carboxymethyl-modified dextran surface via both amine and carboxyl coupling, using the surface thiol method, in two different lanes of Biacore CM5 chips. The immobilization was carried out according to the procedure described in the kits. In brief, the sensor chip surface was first washed with 4 M LiCl/HBS for 1 min and then with 0.2% SP20/HBS for 1 mM. The surface was activated according to standard procedure with an injection of 0.05 M NHS/0.2 M EDC for 7 min. Desalted insulin solution was diluted in acetate buffer, pH 4.5, to 20 μg/ml and injected at 50/min for different time intervals. For surface thiol coupling, the surface was first activated with 0.05 M NHS/0.2 M EDC for 2 min followed by a 3 min injection of 40 mM cystamine dihydrochloride and then 0.1 M DTE for 3 min. […] The mixture was incubated for 10 mM at room temperature and excess PDEA was removed on a NAP-10 column. The purified PDEA ligand was injected for 7 min, soon after DTE, and finally the surface was washed with 20 mM PDEA in 0.1 M sodium acetate, 1.0 M NaCl. For quick regeneration of the surface, 2 M guanidine-HC1, pH 6.4, was employed. For controls, lanes activated and deactivated according to the standard procedures were used. For subtraction of noise from the data, running buffer only was injected to all surfaces. For the C-terminal attachment, surface-thiol coupling to 4000-5000 RU was used, and for N-terminal attachment, amine coupling to 800-1000 RU as achieved on different CM5 chips. However for kinetic analysis immobilization was carried out in a controlled condition and around 1000 RU for C-terminal and 400 RU for N-terminal coupling were immobilized. A surface activated with EDC/NHS and deactivated with ethanolamine was used as a control surface for N-terminally immobilized insulin and a surface treated with EDC/NHS, cysteine/DTE and finally deactivated with PDEA-NaCl was used as a control for C-terminally immobilized insulin. Biacore data were analyzed with Bia-evaluation software 4.1. All calculations based on numerical approaches, including simulations and global curve fitting for estimates of active concentrations, were performed with IGOR Pro (version 4.01.A, WaveMetrics, Inc.). However, C-peptide, mixed with insulin in solution, influences the insulin-insulin monomer interactions measured above. […] This elevated interaction can be seen at different pH from 3-7. The phenomenon of more pronounced interaction was clearer when concentrations higher than 0.5 μM were used then below 0.5 μM. […] All concentrations were run in triplicates and in random order.

[2] = s.c. injection of C-peptide plus soluble insulin (CI-day) vs insulin plus diluent (I-day), glucose clamp, Type 1 diabetic patients; type: in vivo, human
Description: Apart from insulin they had no other medication. All patients received injections of soluble insulin before meals and intermediate-acting insulin at bedtime. Six patients had simplex retinopathy and two of these (nos. 4 and 8) also had microalbuminuaria. All subjects were informed of the purpose, nature and possible risks before giving their consent to participate in the study, which was approved by the local Ethics Committee. The experiments were carried out on two days separated by at least one week. The patients were admitted to the hospital at 8 p.m. in the evening before the study day. They received their last dose of insulin at 4-6 p.m. In order to clear the subcutaneous depots of insulin no intermediate-acting insulin was given at bedtime. Instead, an intravenous infusion of insulin was started at the time of admission. […] On the study day the investigation started at 7.30 a.m. after an overnight fast. A short teflon catheter was inserted into an antecubital vein for blood sampling. […] The injections were given with an automatic injection device (which allowed standardization of speed and depth) approximately 100 mm lateral to the umbilicus into the middle of the subcutaneous tissue, the depth of which was predetermined with ultrasound. After the injections plasma glucose was allowed to decrease to 3.5 mmol/l, whereafter it was maintained at 3.5-5 mmol/l using a variable glucose infusion (DeFronzo R, Tobin J, Andres R, American Journal of Physiology 237:[…]-[…], 1979) The patients were followed for 6 hours. Blood samples for the determination of plasma glucose, free insulin, C-peptide, FFA and glucagon were taken at timed intervals. […] Plasma free insulin was determined by radioimmunoassay after immediate polyethylene glycol precipitation (Arnquist H, Olsson P, von Schenk H, Clinical Chemistry 33:93-96, 1987). C-peptide (Heding L, Diabetologia 11:541-548, 1975) and glucagon were also analyzed by radioimmunoassay using a commercially available kit (MILAB, Malmö, Sweden). Plasma […], Greenberg […], Goetz F, Metabolism 35:122-125, 1986) was determined by a fluorometric method. Standard statistical methods including Wilcoxon's nonparametric test, Student's paired t-test and linear regression analyses were performed when applicable. Results are presented as mean values±SEM. […] The areas under the plasma insulin, and free fatty acid concentration curves were computed by trapezoidal integration.

[3] = in vivo; cited from earlier work

Which “effect of additive on insulin-insulin interaction” value [1] does the source give for `O=C(O)CN(CCN(CC(=O)O)CC(=O)O)CC(=O)O` [EDTA] here?
The value was “promoted insulin-insulin interaction”.

With `O=S(=O)([O-])[O-].[Zn+2]` [zinc sulfate] as the compound, how does the “effect of additive on insulin-insulin interaction” value [1] read?
Its value is “diminished insulin interaction”.

With “C-terminal pentapeptide: pentapeptide EGSLQ (SEQ ID NO. 2), residues 27-31 of native human C-peptide (Pentapeptide of C-peptide)” as the compound, how does the “enhancement of insulin-insulin binding relative to native C-peptide” value ([1]; 1:1 molar ratio (FIG. 15)) read?
The value was “as equally effective as the native C-peptide”.

What about the “stimulation of SPR-measurable binding in mixture with insulin in the flow-through solution” value ([1]; Example 10) of the same compound?
Its value is “stimulated SPR-measurable binding”.

Which results are given for “I: soluble insulin (Humulin; 10U) and C-peptide diluent, injected s.c.”?
AUC for plasma FFA concentration 0-360 min ([2]; 0-360 min): 129 ± 17 mmol·min/L; plasma FFA 10 min after the injections ([2]; 30 min after cessation of i.v. insulin infusion): 0.80 ± 0.11 mmol/L; AUC for plasma FFA concentration 0-180 min ([2]; after correction for the plasma free insulin area, p<0.01): 55.6 ± 5.1 mmol·min/L; area under the plasma IRI curve (0-360 min) ([2]; human, in vivo): 5847±430 mU/l×min; plasma glucose at the beginning of the glucose infusions ([2]; human, in vivo): 3.5 ± 0.05 mmol/L; plasma C-peptide at 360 min ([2]; mean±SEM): 0.10 ± 0.02 nmol/L; patients requiring intravenous infusion of glucose to avoid hypoglycemia ([2]; nine patients): 7 of 9; time of peak plasma insulin (IRI) ([2]; s.c. insulin 10 U): 88 ± 11 min; duration of glucose infusion ([2]; variable glucose infusion to avoid hypoglycemia): 124 ± 28 min

With Insulin Glulisine as the compound, how does the “action / pharmacokinetic profile compared with other rapid acting analogues” value [3] read?
Its value is “pharmacokinetic profile similar to Lispro and Aspart”.

Which results are given for Lispro?
effective duration [3]: 4 to 6 h; onset of action [3]: 5 to 15 min; peak action [3]: 0.5 to 1.5 h

With regular insulin: regular human insulin as the compound, how does the effective duration [3] read?
The effective duration was 8 to 10 h.

What about the onset of action [3] of the same compound?
Its onset of action is 30 to 60 min.

What about the peak action [3] of the same compound?
The peak action was 2 to 3 h.

Which results are given for “zinc insulin (Lente): human insulin preparation, zinc insulin, with extended duration”?
effective duration [3]: 12 to 20 h; onset of action [3]: 120 to 240 min; peak action [3]: 4 to 10 h
